Measured values as given in patent US20220009920A1 (GB005, Inc., priority 2020, published 2022).

How the values were obtained:
Assay in all cases: Large panel kinase profiling
Format in all cases: biochemical
Conditions in all cases: 1 μM test article, 1 mM ATP
[1] = molecular target: PRKACG (Homo sapiens, UniProt P22612)
Procedure: (§1) Large panel kinase profiling was performed at AssayQuant Technologies, Inc. 260 Cedar Hill Street, Marlborough, Mass. 01752 using the PhosphoSens® CSox-Sensor platform using 1 μM test article concentration and 1 mM ATP concentration (www.assayquant.com). Reactions were run in Corning, half-area 96-well, white flat round bottom polystyrene NBS microplates (Cat. #3642) after sealing using optically-clear adhesive film (TopSealA-Plus plate seal, PerkinElmer), applied with either a roller or a paddle to eliminate evaporation and resulting drift. The standard total reaction volume was 50 μL. All experiments were ran at 30° C. to control for fluctuations in ambient temperature. Plates were read from the top in kinetic mode (readings taken every 1 min), monitoring fluorescence intensity with filters using Ex 360 nm and Em 485 nm and a band width of 40 and 20 nm, respectively, and a gain of 80. Data analysis was performed using either Graphpad Prism or Gene Data Screener software.

[2] = molecular target: PAK2 (Homo sapiens, UniProt Q13177)
Procedure: as §1

[3] = molecular target: MAP3K11 (Homo sapiens, UniProt Q16584)
Procedure: as §1

[4] = molecular target: T1, SRPK2 (Homo sapiens, UniProt P78362)
T1 construct: AssayQuant Technologies, Inc. (contract assay)
Procedure: as §1

[5] = molecular target: T2, GRK7 (Homo sapiens, UniProt Q8WTQ7)
T2 construct: AssayQuant Technologies, Inc. (service provider)
T2 sequence (Q8WTQ7 1-553): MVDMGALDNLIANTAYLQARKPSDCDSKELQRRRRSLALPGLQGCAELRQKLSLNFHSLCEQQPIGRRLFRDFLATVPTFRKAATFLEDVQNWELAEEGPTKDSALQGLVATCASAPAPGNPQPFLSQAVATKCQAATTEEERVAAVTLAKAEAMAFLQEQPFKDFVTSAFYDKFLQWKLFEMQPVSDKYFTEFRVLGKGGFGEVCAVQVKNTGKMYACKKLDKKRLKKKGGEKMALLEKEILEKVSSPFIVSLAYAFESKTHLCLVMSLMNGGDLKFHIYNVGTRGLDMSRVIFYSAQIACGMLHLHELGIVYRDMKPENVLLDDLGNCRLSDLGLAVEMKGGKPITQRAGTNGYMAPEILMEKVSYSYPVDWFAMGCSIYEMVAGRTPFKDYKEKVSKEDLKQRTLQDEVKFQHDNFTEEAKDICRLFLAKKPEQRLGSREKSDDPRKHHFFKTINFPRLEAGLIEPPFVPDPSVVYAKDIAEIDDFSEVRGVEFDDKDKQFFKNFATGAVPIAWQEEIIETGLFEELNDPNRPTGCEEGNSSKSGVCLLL
Procedure: as §1

[6] = molecular target: T3, CAMK2G (Homo sapiens, UniProt Q13555)
T3 construct: AssayQuant Technologies, Inc. (ran the panel)
Procedure: as §1

[7] = molecular target: T4, HIPK3 (Homo sapiens, UniProt Q9H422)
T4 construct: AssayQuant Technologies, Inc. (service provider)
Procedure: as §1

[8] = molecular target: PRKAA1/AMPK121 (Homo sapiens, UniProt Q13131)
Procedure: as §1

[9] = molecular target: T5, CSK (Homo sapiens, UniProt P41240)
T5 construct: AssayQuant Technologies, Inc. (service laboratory)
Procedure: as §1

[10] = molecular target: PRKCD/CPKCD (Homo sapiens, UniProt Q05655)
Procedure: as §1

[11] = molecular target: T6, TYK2(JH1) (Homo sapiens, UniProt P29597)
T6 construct: TYK2(JH1); AssayQuant Technologies, Inc. (contract laboratory that ran the panel)
T6 sequence (P29597 897-1176 limits assumed): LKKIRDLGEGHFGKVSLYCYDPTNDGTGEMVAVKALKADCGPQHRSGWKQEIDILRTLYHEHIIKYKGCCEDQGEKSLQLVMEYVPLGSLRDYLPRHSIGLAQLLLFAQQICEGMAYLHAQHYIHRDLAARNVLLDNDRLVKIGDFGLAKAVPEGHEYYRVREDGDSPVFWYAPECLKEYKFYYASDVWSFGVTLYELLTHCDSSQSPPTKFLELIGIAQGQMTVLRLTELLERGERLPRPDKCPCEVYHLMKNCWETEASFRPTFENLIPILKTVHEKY
Procedure: as §1

[12] = molecular target: T7, INSR (Homo sapiens, UniProt P06213)
T7 construct: AssayQuant Technologies, Inc. (service provider)
Procedure: as §1

[13] = molecular target: T8, TXK (Homo sapiens, UniProt P42681)
T8 construct: AssayQuant Technologies, Inc. (contract laboratory that ran the panel)
T8 sequence (P42681 1-527): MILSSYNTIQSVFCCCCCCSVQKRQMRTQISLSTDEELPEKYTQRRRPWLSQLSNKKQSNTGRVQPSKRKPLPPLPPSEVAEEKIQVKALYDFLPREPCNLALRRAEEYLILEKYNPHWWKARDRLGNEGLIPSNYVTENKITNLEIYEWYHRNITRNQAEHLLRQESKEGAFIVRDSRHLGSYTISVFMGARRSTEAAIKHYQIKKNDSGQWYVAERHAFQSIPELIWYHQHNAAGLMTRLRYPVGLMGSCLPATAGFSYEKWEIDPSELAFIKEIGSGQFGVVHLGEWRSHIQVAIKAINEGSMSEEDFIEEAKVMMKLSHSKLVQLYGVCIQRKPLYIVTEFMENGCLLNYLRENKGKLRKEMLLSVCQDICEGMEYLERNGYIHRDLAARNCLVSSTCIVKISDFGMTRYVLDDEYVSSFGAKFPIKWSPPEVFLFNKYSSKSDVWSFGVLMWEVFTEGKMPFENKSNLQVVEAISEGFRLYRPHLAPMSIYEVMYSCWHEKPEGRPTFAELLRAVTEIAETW
Procedure: as §1

T1 sequence (P78362 whole entry, species assumed): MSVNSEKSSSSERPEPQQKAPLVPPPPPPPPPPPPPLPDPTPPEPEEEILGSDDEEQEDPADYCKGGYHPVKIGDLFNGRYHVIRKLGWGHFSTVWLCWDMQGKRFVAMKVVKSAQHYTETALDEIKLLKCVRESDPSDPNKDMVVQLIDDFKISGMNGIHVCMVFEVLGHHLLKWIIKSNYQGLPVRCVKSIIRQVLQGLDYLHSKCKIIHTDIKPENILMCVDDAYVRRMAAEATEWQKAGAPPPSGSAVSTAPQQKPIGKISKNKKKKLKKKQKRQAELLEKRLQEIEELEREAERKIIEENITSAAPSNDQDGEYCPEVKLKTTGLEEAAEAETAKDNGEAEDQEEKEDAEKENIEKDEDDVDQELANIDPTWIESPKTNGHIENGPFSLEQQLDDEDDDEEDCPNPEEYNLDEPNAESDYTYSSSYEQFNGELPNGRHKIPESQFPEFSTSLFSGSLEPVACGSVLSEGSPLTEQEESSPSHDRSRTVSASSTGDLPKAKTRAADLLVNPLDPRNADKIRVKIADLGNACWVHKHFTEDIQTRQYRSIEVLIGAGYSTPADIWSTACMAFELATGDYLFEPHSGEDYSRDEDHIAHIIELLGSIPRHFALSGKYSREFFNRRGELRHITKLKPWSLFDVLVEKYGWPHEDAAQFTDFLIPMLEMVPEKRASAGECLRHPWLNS
Sequence of MAP3K11 (Q16584 whole entry, species assumed): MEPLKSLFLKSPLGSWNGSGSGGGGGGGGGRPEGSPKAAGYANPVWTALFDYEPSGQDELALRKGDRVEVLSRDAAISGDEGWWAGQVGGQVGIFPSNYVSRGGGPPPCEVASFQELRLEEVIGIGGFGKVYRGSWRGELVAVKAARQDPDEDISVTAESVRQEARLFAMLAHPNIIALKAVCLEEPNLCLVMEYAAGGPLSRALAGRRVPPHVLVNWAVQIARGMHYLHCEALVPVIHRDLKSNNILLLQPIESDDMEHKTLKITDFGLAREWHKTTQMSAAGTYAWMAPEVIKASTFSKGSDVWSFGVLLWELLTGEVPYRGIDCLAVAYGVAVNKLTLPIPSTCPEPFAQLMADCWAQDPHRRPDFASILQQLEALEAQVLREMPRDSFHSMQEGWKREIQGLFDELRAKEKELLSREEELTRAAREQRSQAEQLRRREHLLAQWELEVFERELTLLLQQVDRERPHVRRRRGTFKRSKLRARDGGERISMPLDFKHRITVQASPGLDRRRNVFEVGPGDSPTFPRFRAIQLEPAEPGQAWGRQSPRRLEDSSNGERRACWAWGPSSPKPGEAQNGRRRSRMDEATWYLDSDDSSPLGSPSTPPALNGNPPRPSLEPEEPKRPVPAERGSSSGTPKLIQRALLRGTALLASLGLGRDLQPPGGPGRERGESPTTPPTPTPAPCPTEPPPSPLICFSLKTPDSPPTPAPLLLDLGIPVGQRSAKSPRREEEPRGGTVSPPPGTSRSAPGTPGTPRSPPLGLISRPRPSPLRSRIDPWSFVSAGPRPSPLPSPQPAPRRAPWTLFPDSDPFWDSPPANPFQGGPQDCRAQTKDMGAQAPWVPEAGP
T5 sequence (P41240 whole entry, species assumed): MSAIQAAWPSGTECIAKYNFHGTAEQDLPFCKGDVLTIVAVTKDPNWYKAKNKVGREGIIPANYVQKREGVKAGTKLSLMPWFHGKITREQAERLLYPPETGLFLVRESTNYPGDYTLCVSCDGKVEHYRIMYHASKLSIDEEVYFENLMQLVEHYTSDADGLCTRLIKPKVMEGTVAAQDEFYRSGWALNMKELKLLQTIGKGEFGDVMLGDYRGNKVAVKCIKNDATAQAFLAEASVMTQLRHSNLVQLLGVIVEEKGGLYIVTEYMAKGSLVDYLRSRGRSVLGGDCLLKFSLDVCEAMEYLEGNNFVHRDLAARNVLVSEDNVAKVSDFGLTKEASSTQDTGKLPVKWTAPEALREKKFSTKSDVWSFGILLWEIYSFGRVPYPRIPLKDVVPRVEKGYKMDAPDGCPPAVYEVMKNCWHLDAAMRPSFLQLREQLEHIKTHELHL
Sequence of PRKAA1/AMPK121 (Q13131 whole entry, species assumed): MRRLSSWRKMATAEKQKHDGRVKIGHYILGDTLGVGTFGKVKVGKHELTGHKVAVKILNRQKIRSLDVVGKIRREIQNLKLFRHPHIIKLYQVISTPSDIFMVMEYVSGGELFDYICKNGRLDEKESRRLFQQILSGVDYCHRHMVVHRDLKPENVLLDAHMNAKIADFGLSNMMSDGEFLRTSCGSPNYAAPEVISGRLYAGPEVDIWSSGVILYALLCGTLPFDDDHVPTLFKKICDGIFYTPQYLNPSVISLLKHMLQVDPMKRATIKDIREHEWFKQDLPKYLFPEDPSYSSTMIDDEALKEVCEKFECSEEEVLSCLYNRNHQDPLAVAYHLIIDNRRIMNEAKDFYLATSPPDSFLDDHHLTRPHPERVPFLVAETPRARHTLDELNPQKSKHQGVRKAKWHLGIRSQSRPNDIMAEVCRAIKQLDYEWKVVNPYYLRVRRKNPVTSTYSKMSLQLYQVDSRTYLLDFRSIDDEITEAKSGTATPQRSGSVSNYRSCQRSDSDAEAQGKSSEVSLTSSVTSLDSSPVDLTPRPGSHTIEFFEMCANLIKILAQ
Sequence of PRKAA1/AMPK121 (O43741 whole entry partner, species assumed): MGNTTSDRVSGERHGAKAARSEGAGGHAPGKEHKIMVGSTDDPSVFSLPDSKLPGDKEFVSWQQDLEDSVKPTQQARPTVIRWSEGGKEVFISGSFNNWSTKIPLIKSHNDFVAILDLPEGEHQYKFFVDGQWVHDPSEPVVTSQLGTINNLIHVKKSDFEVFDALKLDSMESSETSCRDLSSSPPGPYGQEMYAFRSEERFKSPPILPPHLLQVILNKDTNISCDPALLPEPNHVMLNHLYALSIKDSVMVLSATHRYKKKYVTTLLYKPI
Sequence of PRKAA1/AMPK121 (P54619 whole entry partner, species assumed): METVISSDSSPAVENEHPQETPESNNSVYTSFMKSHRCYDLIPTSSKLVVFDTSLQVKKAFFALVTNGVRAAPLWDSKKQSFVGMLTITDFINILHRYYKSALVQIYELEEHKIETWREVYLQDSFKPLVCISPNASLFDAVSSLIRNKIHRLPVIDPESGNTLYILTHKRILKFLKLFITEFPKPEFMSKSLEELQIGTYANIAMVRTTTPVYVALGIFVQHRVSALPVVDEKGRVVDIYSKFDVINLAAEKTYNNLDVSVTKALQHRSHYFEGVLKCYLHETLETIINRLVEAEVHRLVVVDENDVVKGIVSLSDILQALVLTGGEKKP
T3 sequence (Q13555 whole entry, species assumed): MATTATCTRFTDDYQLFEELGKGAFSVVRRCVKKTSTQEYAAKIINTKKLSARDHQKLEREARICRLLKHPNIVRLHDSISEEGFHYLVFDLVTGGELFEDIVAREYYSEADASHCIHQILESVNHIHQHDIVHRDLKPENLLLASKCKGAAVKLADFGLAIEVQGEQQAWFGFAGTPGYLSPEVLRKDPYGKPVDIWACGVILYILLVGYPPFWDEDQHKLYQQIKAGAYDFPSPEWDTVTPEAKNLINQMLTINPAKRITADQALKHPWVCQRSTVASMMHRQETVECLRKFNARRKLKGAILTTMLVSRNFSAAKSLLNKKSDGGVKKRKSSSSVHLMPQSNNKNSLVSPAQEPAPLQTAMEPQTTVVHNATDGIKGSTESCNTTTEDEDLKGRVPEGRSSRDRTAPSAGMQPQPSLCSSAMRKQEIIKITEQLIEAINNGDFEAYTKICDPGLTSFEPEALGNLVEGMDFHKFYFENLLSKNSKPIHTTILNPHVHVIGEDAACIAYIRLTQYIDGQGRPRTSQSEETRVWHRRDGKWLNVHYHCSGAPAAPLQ
Sequence of PAK2 (Q13177 whole entry, species assumed): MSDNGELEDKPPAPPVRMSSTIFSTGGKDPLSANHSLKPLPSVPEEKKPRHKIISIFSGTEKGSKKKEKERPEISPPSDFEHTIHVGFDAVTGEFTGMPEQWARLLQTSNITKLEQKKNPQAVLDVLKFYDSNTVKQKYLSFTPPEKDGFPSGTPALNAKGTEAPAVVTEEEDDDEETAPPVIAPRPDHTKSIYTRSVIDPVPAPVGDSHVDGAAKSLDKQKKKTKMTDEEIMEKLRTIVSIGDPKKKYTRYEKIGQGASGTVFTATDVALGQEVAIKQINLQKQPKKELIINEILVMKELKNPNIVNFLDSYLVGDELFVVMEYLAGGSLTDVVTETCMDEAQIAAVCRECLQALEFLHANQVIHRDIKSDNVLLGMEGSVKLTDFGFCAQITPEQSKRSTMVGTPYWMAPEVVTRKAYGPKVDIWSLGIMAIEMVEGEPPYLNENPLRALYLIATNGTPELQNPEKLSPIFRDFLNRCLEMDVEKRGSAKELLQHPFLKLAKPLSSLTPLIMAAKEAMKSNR
Sequence of PRKACG (P22612 whole entry, species assumed): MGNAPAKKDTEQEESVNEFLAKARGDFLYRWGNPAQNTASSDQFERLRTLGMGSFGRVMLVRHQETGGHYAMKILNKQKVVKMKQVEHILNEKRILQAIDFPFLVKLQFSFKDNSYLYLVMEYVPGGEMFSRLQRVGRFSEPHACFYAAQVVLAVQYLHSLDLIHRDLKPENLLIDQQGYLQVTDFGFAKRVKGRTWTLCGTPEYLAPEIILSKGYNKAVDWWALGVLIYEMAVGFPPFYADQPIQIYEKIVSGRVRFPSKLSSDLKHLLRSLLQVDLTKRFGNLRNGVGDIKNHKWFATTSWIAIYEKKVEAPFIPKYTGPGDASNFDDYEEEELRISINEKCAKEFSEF

## C=CC(=O)N1CCCC(c2c(F)cc(C(N)=O)c3[nH]c4c(c23)CCCCC4)C1 (single isomer, unassigned) [Compound 5-6]
[1]
  inhibition at 1 µM: 4.2%
[2]
  inhibition at 1 µM: 13.9%
[3]
  inhibition at 1 µM: 16%
[4]
  inhibition at 1 µM: 24.9%
[5]
  inhibition at 1 µM: 1.3%
[6]
  inhibition at 1 µM: 15.7%
[7]
  inhibition at 1 µM: -11.2%
[8]
  inhibition at 1 µM: -7.9%
[9]
  inhibition at 1 µM: -9.4%
[10]
  inhibition at 1 µM: -42.2%
[11]
  inhibition at 1 µM: -2.7%
[12]
  inhibition at 1 µM: 10.3%
[13]
  inhibition at 1 µM: 74.7%

## C=CC(=O)N1CCC[C@@H](c2c(F)cc(C(N)=O)c3[nH]c4c(c23)CCC4)C1 [Compound 10-2, (S)-8-(1-acryloylpiperidin-3-yl)-7-fluoro-1,2,3,4-tetrahydrocyclo-penta[b]indole-5-carboxamide]
[1]
  inhibition at 1 µM: -19.2%
[2]
  inhibition at 1 µM: 7%
[3]
  inhibition at 1 µM: -3.2%
[4]
  inhibition at 1 µM: -29.1%
[5]
  inhibition at 1 µM: -33%
[6]
  inhibition at 1 µM: -37.5%
[7]
  inhibition at 1 µM: 34.7%
[8]
  inhibition at 1 µM: 34.2%
[9]
  inhibition at 1 µM: -8.5%
[10]
  inhibition at 1 µM: -0.6%
[11]
  inhibition at 1 µM: 3.5%
[12]
  inhibition at 1 µM: -6%
[13]
  inhibition at 1 µM: 71%

## C=CC(=O)N1CCC[C@@H](c2c(F)cc(C(N)=O)c3[nH]c4c(c23)CC2(CC4)CC2)C1 [Compound 6-2, (S)-5-(1-acryloylpiperidin-3-yl)-6-fluoro-1,2,4,9-tetrahydrospiro[carbazole-3,1′-cyclopropane]-8-carboxamide]
[1]
  inhibition at 1 µM: -27.2%
[2]
  inhibition at 1 µM: 1.3%
[3]
  inhibition at 1 µM: 17.6%
[4]
  inhibition at 1 µM: -60.6%
[5]
  inhibition at 1 µM: 10.9%
[6]
  inhibition at 1 µM: -7.1%
[7]
  inhibition at 1 µM: 30.6%
[8]
  inhibition at 1 µM: 31.3%
[9]
  inhibition at 1 µM: -6.4%
[10]
  inhibition at 1 µM: -0.1%
[11]
  inhibition at 1 µM: -1.1%
[12]
  inhibition at 1 µM: -6.6%
[13]
  inhibition at 1 µM: 59.1%
